In patent US8853174B2, “Agent for preventing or ameliorating skin aging” (Kao Corporation, priority 2008, dated 2014):

System: Human skin fibroblasts
Test: Measurement of contraction force generated by cells (fibroblast-embedded collagen gel culture system)
Format: cell-based
Details: for enhancement in the contraction force generated by fibroblasts (in words): 3 μM; for Mean value of contraction force generated by cells: Test Example 1, human skin fibroblasts in collagen gel, final concentration 3 μM

SMILES	enhancement in the contraction force generated by fibroblasts (in words)	Mean value of contraction force generated by cells [dyne]
C/C=C(\C)C(=O)O[C@H]1[C@H](OC(C)=O)[C@]2(CO)[C@H](O)C[C@]3(C)C(=CC[C@@H]4[C@@]5(C)CC[C@H](O[C@@H]6O[C@H](C(=O)O)[C@@H](O[C@@H]7O[C@H](CO)[C@@H](O)[C@H](O)[C@H]7O)[C@H](O)[C@H]6O[C@@H]6O[C@H](CO)[C@@H](O)[C@H](O)[C@H]6O)[C@](C)(CO)[C@@H]5CC[C@]43C)[C@@H]2CC1(C)C [Escin Ia]	no enhancement	0.0
C/C=C(/C)C(=O)O[C@H]1[C@H](OC(C)=O)[C@]2(CO)[C@H](O)C[C@]3(C)C(=CC[C@@H]4[C@@]5(C)CC[C@H](O[C@@H]6O[C@H](C(=O)O)[C@@H](O[C@@H]7O[C@H](CO)[C@@H](O)[C@H](O)[C@H]7O)[C@H](O)[C@H]6O[C@@H]6O[C@H](CO)[C@@H](O)[C@H](O)[C@H]6O)[C@](C)(CO)[C@@H]5CC[C@]43C)[C@@H]2CC1(C)C [Escin Ib]	no enhancement	0.0
